Where “and” joins values, the source holds several entries; their conditions need not be identical. Equal entries are not always repeated. Inconclusive results and toxic doses are left out.
System: BDF1 mice, P288 leukemia ip, survival T/C
Experiment: NCI In Vivo Anticancer Drug Screen. Data for tumor model P288 Lymphocytic Leukemia (intraperitoneal) in B6D2F1 (BDF1) mice
Conditions: endpoint: survival time, mean or median, higher = longer survival
Experimental: The antitumor activity of compounds was measured in mice bearing transplantable tumors. Survival or tumor size were measured and the results are expressed as the measurement made in the treated group (T) divided by the measurement made in the vehicle treated control group (C). The tumor model used in this assay is P288 Lymphocytic Leukemia (intraperitoneal) in B6D2F1 (BDF1) mice

[1] = dose: 2.0 mg/kg/injection, schedule: Q01DX010 (ip), vehicle: saline
[2] = dose: 4.0 mg/kg/injection, schedule: Q01DX010 (ip), vehicle: saline
[3] = dose: 8.0 mg/kg/injection, schedule: Q01DX010 (ip), vehicle: saline
[4] = dose: 16.0 mg/kg/injection, schedule: Q01DX010 (ip), vehicle: saline
[5] = dose: 10.0 mg/kg/injection, schedule: Q01DX010 (ip), vehicle: saline
[6] = dose: 1.0 mg/kg/injection, schedule: Q01DX010 (ip), vehicle: saline
[7] = dose: 50.0 mg/kg/injection, schedule: Q01DX Z (ip), vehicle: other
[8] = dose: 100.0 mg/kg/injection, schedule: Q01DX Z (ip), vehicle: other
[9] = dose: 200.0 mg/kg/injection, schedule: Q01DX Z (ip), vehicle: other
[10] = dose: 400.0 mg/kg/injection, schedule: Q01DX Z (ip), vehicle: other
[11] = dose: 1.25 mg/kg/injection, schedule: Q01DX010 (ip), vehicle: saline
[12] = dose: 2.5 mg/kg/injection, schedule: Q01DX010 (ip), vehicle: saline
[13] = dose: 5.0 mg/kg/injection, schedule: Q01DX010 (ip), vehicle: saline
[14] = dose: 0.63 mg/kg/injection, schedule: Q01DX Z (ip), vehicle: carboxymethylcellulose (CMC)
[15] = dose: 1.25 mg/kg/injection, schedule: Q01DX Z (ip), vehicle: carboxymethylcellulose (CMC)
[16] = dose: 250.0 mg/kg/injection, schedule: Q01DX Z (ip), vehicle: carboxymethylcellulose (CMC)

SMILES: [N-]=[N+]=CC(=O)NCC(=O)NN
- T/C (dose: 125.0 mg/kg/injection, schedule: Q01DX Z (ip), vehicle: other): 96 % of control
- T/C (dose: 250.0 mg/kg/injection, schedule: Q01DX Z (ip), vehicle: other): 98 % of control
- T/C (dose: 500.0 mg/kg/injection, schedule: Q01DX Z (ip), vehicle: other): 92 % of control

SMILES: O=C(Nc1ccc(NC2=NCCN2)cc1)c1ccc(C(=O)Nc2ccc(NC3=NCCN3)cc2)cc1
- T/C (dose: 0.5 mg/kg/injection, schedule: Q01DX Z (ip), vehicle: saline): 97 % of control
- T/C (dose: 1.0 mg/kg/injection, schedule: Q01DX Z (ip), vehicle: saline): 109 % of control
- T/C [1]: 157 % of control and 184 % of control
- T/C (dose: 2.0 mg/kg/injection, schedule: Q01DX Z (ip), vehicle: saline): 114 % of control
- T/C [2]: 189 % of control and 194 % of control
- T/C (dose: 4.0 mg/kg/injection, schedule: Q01DX Z (ip), vehicle: saline): 152 % of control
- T/C [3]: 247 % of control and 284 % of control
- T/C (dose: 8.0 mg/kg/injection, schedule: Q01DX Z (ip), vehicle: saline): 203 % of control
- T/C [4]: 115 % of control
- T/C (dose: 32.0 mg/kg/injection, schedule: Q01DX Z (ip), vehicle: saline): 105 % of control

SMILES: Nc1ncnc2c1ncn2C1OC(COCc2ccccc2)C(OCc2ccccc2)C1OCc1ccccc1 (stereo not drawn)
- T/C [5]: 94 % of control and 100 % of control
- T/C (dose: 20.0 mg/kg/injection, schedule: Q01DX010 (ip), vehicle: saline): 111 % of control and 94 % of control
- T/C (dose: 40.0 mg/kg/injection, schedule: Q01DX010 (ip), vehicle: saline): 105 % of control and 100 % of control
- T/C (dose: 80.0 mg/kg/injection, schedule: Q01DX010 (ip), vehicle: saline): 94 % of control

SMILES: Nc1nc(=S)c2ncn(C3OC(CO)C(O)C3O)c2[nH]1 (stereo not drawn)
- T/C [6]: 105 % of control
- T/C [1]: 115 % of control
- T/C [2]: 118 % of control and 120 % of control
- T/C [3]: 112 % of control and 95 % of control
- T/C [4]: 106 % of control
- T/C (dose: 5.0 micrograms/kg/injection, schedule: Q01DX Z (ip), vehicle: carboxymethylcellulose (CMC)): 105 % of control
- T/C (dose: 10.0 micrograms/kg/injection, schedule: Q01DX Z (ip), vehicle: carboxymethylcellulose (CMC)): 96 % of control
- T/C (dose: 20.0 micrograms/kg/injection, schedule: Q01DX Z (ip), vehicle: carboxymethylcellulose (CMC)): 94 % of control

SMILES: C1CN1c1nc(N2CC2)nc(N2CC2)n1
- T/C (dose: 0.13 mg/kg/injection, schedule: Q01DX010 (ip), vehicle: saline): 88 % of control
- T/C (dose: 0.25 mg/kg/injection, schedule: Q01DX010 (ip), vehicle: saline): 105 % of control and 88 % of control
- T/C (dose: 0.5 mg/kg/injection, schedule: Q01DX010 (ip), vehicle: saline): 111 % of control and 95 % of control
- T/C [6]: 94 % of control

SMILES: CN(C)[C@@H]1C(=O)C(C(N)=O)=C(O)[C@@]2(O)C(=O)C3=C(O)c4c(O)cccc4C[C@H]3C[C@@H]12
- T/C (dose: 7.5 mg/kg/injection, schedule: Q01DX010 (ip), vehicle: saline): 94 % of control
- T/C (dose: 15.0 mg/kg/injection, schedule: Q01DX010 (ip), vehicle: saline): 105 % of control and 94 % of control
- T/C (dose: 30.0 mg/kg/injection, schedule: Q01DX010 (ip), vehicle: saline): 122 % of control and 100 % of control
- T/C (dose: 60.0 mg/kg/injection, schedule: Q01DX010 (ip), vehicle: saline): 94 % of control and 100 % of control

SMILES: S=c1nc[nH]c2nc[nH]c12
- T/C (dose: 5.0 mg/kg/injection, schedule: Q01DX010 (ip), vehicle: alkali diluted with saline): 92 % of control
- T/C (dose: 10.0 mg/kg/injection, schedule: Q01DX010 (ip), vehicle: alkali diluted with saline): 94 % of control
- T/C (dose: 12.5 mg/kg/injection, schedule: Q01DX Z (ip), vehicle: other): 97 % of control
- T/C (dose: 20.0 mg/kg/injection, schedule: Q01DX010 (ip), vehicle: alkali diluted with saline): 86 % of control and 100 % of control
- T/C (dose: 25.0 mg/kg/injection, schedule: Q01DX Z (ip), vehicle: other): 93 % of control and 100 % of control
- T/C (dose: 40.0 mg/kg/injection, schedule: Q01DX010 (ip), vehicle: alkali diluted with saline): 110 % of control and 86 % of control
- T/C [7]: 102 % of control and 94 % of control
- T/C (dose: 80.0 mg/kg/injection, schedule: Q01DX010 (ip), vehicle: alkali diluted with saline): 117 % of control and 86 % of control
- T/C [8]: 105 % of control and 118 % of control
- T/C [9]: 106 % of control and 100 % of control
- T/C [10]: 89 % of control

SMILES: Oc1cc(CN(CCCl)CCCl)c(O)cc1CN(CCCl)CCCl
- T/C (dose: 0.63 mg/kg/injection, schedule: Q01DX010 (ip), vehicle: saline): 100 % of control
- T/C [11]: 111 % of control and 100 % of control
- T/C (dose: 1.88 mg/kg/injection, schedule: Q01DX Z (sc), vehicle: steriod suspending solution): 87 % of control
- T/C [12]: 105 % of control
- T/C (dose: 3.75 mg/kg/injection, schedule: Q01DX Z (sc), vehicle: steriod suspending solution): 104 % of control
- T/C [13]: 105 % of control and 116 % of control
- T/C [5]: 95 % of control

SMILES: Cc1n[nH]c(=O)[nH]c1=O
- T/C [7]: 104 % of control
- T/C [8]: 101 % of control
- T/C [9]: 101 % of control and 110 % of control
- T/C [10]: 101 % of control and 110 % of control
- T/C (dose: 800.0 mg/kg/injection, schedule: Q01DX Z (ip), vehicle: other): 97 % of control

SMILES: NC(Cc1ccc(N(CCCl)CCCl)cc1)C(=O)O (stereo not drawn)
- T/C (dose: 0.31 mg/kg/injection, schedule: Q01DX Z (ip), vehicle: carboxymethylcellulose (CMC)): 90 % of control
- T/C [14]: 111 % of control
- T/C [11]: 112 % of control
- T/C [15]: 110 % of control
- T/C [1]: 172 % of control
- T/C (dose: 2.5 mg/kg/injection, schedule: Q01DX Z (ip), vehicle: carboxymethylcellulose (CMC)): 105 % of control
- T/C [2]: 188 % of control
- T/C [13]: 150 % of control
- T/C (dose: 5.0 mg/kg/injection, schedule: Q01DX Z (ip), vehicle: carboxymethylcellulose (CMC)): 97 % of control
- T/C [5]: 187 % of control
- T/C (dose: 10.0 mg/kg/injection, schedule: Q01DX Z (ip), vehicle: carboxymethylcellulose (CMC)): 97 % of control
- T/C [4]: 88 % of control

SMILES: O=C(O)CCCc1ccc(N(CCCl)CCCl)cc1
- T/C (dose: 3.1 mg/kg/injection, schedule: Q01DX Z (ip), vehicle: carboxymethylcellulose (CMC)): 110 % of control
- T/C (dose: 3.13 mg/kg/injection, schedule: Q01DX010 (ip), vehicle: saline): 88 % of control
- T/C (dose: 6.25 mg/kg/injection, schedule: Q01DX010 (ip), vehicle: saline): 100 % of control
- T/C (dose: 6.25 mg/kg/injection, schedule: Q01DX Z (ip), vehicle: carboxymethylcellulose (CMC)): 90 % of control
- T/C (dose: 12.5 mg/kg/injection, schedule: Q01DX010 (ip), vehicle: saline): 100 % of control
- T/C (dose: 12.5 mg/kg/injection, schedule: Q01DX Z (ip), vehicle: carboxymethylcellulose (CMC)): 106 % of control
- T/C (dose: 25.0 mg/kg/injection, schedule: Q01DX Z (ip), vehicle: carboxymethylcellulose (CMC)): 114 % of control and 88 % of control

SMILES: N#[N+]c1cnc([O-])[nH]c1=O
- T/C [14]: 112 % of control
- T/C [11]: 105 % of control
- T/C [15]: 117 % of control
- T/C [12]: 104 % of control
- T/C [5]: 155 % of control

SMILES: OCC1OC(n2cnc3c(=S)nc[nH]c32)C(O)C1O (stereo not drawn)
- T/C (dose: 16.0 mg/kg/injection, schedule: Q01DX Z (ip), vehicle: carboxymethylcellulose (CMC)): 94 % of control
- T/C (dose: 31.0 mg/kg/injection, schedule: Q01DX Z (ip), vehicle: carboxymethylcellulose (CMC)): 94 % of control
- T/C (dose: 62.5 mg/kg/injection, schedule: Q01DX Z (ip), vehicle: carboxymethylcellulose (CMC)): 109 % of control
- T/C (dose: 125.0 mg/kg/injection, schedule: Q01DX Z (ip), vehicle: carboxymethylcellulose (CMC)): 97 % of control
- T/C [16]: 92 % of control

SMILES: O=c1[nH]c(=O)n(C2CC(O)C(CO)O2)cc1I (stereo not drawn)
- T/C (dose: 63.0 mg/kg/injection, schedule: Q01DX Z (ip), vehicle: carboxymethylcellulose (CMC)): 104 % of control
- T/C [16]: 124 % of control
- T/C (dose: 1000.0 mg/kg/injection, schedule: Q01DX010 (ip), vehicle: saline): 116 % of control

Reference: PubChem BioAssay AID216 (DTP/NCI, 2004)
